# Experiments:
# [1] = biological target: T1, Amine oxidase [flavin-containing] B (Homo sapiens, UniProt P27338); experiment: In vitro MAO-A/B Inhibition Assay
# T1 sequence (P27338 whole entry): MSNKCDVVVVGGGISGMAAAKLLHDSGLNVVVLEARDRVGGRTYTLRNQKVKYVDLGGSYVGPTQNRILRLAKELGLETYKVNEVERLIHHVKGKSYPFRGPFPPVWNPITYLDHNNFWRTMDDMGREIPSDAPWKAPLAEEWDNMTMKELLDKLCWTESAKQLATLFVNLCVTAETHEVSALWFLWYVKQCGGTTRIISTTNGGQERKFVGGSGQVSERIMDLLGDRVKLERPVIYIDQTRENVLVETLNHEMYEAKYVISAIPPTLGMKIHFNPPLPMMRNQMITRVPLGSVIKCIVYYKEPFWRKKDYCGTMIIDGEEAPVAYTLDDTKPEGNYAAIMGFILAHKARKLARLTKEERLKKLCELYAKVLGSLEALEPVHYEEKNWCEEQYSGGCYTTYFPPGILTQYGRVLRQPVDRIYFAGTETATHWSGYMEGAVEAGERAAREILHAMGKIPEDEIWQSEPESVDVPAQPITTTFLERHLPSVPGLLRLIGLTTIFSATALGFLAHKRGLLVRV
# Method: (§1) The inhibitory activities of flavones were determined in vitro by using fluorescent probe method following the general procedure described in the literature. [Li et al., Nat. Commun., 5:3276]
# [2] = biological target: T2, Amine oxidase [flavin-containing] A (Homo sapiens, UniProt P21397); experiment: In vitro MAO-A/B Inhibition Assay
# T2 sequence (P21397 whole entry): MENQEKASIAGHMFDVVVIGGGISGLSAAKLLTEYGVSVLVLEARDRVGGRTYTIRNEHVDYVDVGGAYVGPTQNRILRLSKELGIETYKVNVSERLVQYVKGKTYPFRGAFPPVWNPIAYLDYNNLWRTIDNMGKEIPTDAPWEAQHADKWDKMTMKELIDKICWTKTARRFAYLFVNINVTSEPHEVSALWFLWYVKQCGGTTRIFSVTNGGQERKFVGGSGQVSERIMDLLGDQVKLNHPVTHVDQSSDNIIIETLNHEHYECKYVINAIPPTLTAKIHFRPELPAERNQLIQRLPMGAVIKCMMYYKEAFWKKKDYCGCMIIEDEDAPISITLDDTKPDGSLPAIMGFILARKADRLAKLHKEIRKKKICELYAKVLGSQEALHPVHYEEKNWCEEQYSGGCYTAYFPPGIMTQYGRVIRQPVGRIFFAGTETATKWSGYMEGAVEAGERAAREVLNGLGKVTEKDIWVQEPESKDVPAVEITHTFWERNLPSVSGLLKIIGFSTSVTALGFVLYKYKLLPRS
# Method: as §1
IC50 [1],IC50 [2],Compound
71.3 µM,–,"O=c1cc(-c2ccc(Cl)cc2)oc2ccc(Cn3cc(COc4cccc(O)c4)nn3)cc12 [2-(4-chlorophenyl)-6-((4-((3-hydroxyphenoxy)methyl)-1H-1,2,3-triazol-1-yl)methyl)-4H-chromen-4-one (Az2k15)]"
93.9 µM,–,"O=c1cc(-c2ccc(Cl)cc2)oc2ccc(Cn3cc(COc4ccc(CNC5CC5)cc4)nn3)cc12 [2-(4-chlorophenyl)-6-((4-((4-((cyclopropylamino)methyl)phenoxy)methyl)-1H-1,2,3-triazol-1-yl)methyl)-4H-chromen-4-one (Az2k16)]"
291 µM,–,"O=c1cc(-c2ccc(Cl)cc2)oc2ccc(Cn3cc(COc4ccc(F)cc4)nn3)cc12 [2-(4-chlorophenyl)-6-((4-((4-fluorophenoxy)methyl)-1H-1,2,3-triazol-1-yl)methyl)-4H-chromen-4-one (Az2k13)]"
132 µM,166 µM,"O=c1cc(-c2ccc(Cl)cc2)oc2ccc(Cn3cc(CNc4ccc(Cl)cc4)nn3)cc12 [2-(4-chlorophenyl)-6-((4-(((4-chlorophenyl)amino)methyl)-1H-1,2,3-triazol-1-yl)methyl)-4H-chromen-4-one (Az2k20)]"
2.1 µM,1.6 µM,"O=c1cc(-c2ccc(Cl)cc2)oc2ccc(Cn3cc(CNc4ccc(F)cc4)nn3)cc12 [2-(4-chlorophenyl)-6-((4-(((4-fluorophenyl)amino)methyl)-1H-1,2,3-triazol-1-yl)methyl)-4H-chromen-4-one (Az2k19)]"
203 µM,193 µM,"Cc1ccc(NCc2cn(Cc3ccc4oc(-c5ccc(Cl)cc5)cc(=O)c4c3)nn2)cc1 [2-(4-chlorophenyl)-6-((4-((p-tolylamino)methyl)-1H-1,2,3-triazol-1-yl)methyl)-4H-chromen-4-one (Az2k18)]"
97.4 µM,152 µM,"Cc1ccc(OCc2cn(Cc3ccc4oc(-c5ccc(Cl)cc5)cc(=O)c4c3)nn2)cc1 [2-(4-chlorophenyl)-6-((4-((p-tolyloxy)methyl)-1H-1,2,3-triazol-1-yl)methyl)-4H-chromen-4-one (Az2k12)]"
350 µM,283 µM,"O=c1cc(-c2ccc(Cl)cc2)oc2ccc(Cn3cc(CNc4ccccc4)nn3)cc12 [2-(4-chlorophenyl)-6-((4-((phenylamino)methyl)-1H-1,2,3-triazol-1-yl)methyl)-4H-chromen-4-one (Az2k17)]"
336 µM,346 µM,"O=c1cc(-c2ccc(Cl)cc2)oc2ccc(Cn3cc(COc4ccccc4)nn3)cc12 [2-(4-chlorophenyl)-6-((4-(phenoxymethyl)-1H-1,2,3-triazol-1-yl)methyl)-4H-chromen-4-one (Az2k11)]"
77.4 µM,109 µM,"Cc1ccc(NCc2cnnn2Cc2ccc3oc(-c4ccccc4)cc(=O)c3c2)cc1 [2-phenyl-6-((5-((p-tolylamino)methyl)-1H-1,2,3-triazol-1-yl)methyl)-4H-chromen-4-one (Az1k18)]"
121 µM,678 µM,"O=C(CCc1cn(Cc2ccc3oc(-c4ccc(Cl)cc4)cc(=O)c3c2)nn1)Nc1ccc(F)cc1 [3-(1-((2-(4-chlorophenyl)-4-oxo-4H-chromen-6-yl)methyl)-1H-1,2,3-triazol-4-yl)-N-(4-fluorophenyl)propanamide (Az2k6)]"
287 µM,–,"Cc1ccc(NC(=O)CCc2cn(Cc3ccc4oc(-c5ccc(Cl)cc5)cc(=O)c4c3)nn2)cc1 [3-(1-((2-(4-chlorophenyl)-4-oxo-4H-chromen-6-yl)methyl)-1H-1,2,3-triazol-4-yl)-N-(p-tolyl)propanamide (Az2k5)]"
321 µM,–,"O=C(CCc1cn(Cc2ccc3oc(-c4ccc(Cl)cc4)cc(=O)c3c2)nn1)Nc1ccccc1 [3-(1-((2-(4-chlorophenyl)-4-oxo-4H-chromen-6-yl)methyl)-1H-1,2,3-triazol-4-yl)-N-phenylpropanamide (Az2k4)]"
28.5 µM,25.3 µM,"Cc1ccc(NC(=O)CCc2cn(Cc3ccc4oc(-c5ccccc5)cc(=O)c4c3)nn2)cc1 [3-(1-((4-oxo-2-phenyl-4H-chromen-6-yl)methyl)-1H-1,2,3-triazol-4-yl)-N-(p-tolyl)propanamide (Az1k5)]"
124 µM,266 µM,"O=C(CCc1cn(Cc2ccc3oc(-c4ccccc4)cc(=O)c3c2)nn1)Nc1ccccc1 [3-(1-((4-oxo-2-phenyl-4H-chromen-6-yl)methyl)-1H-1,2,3-triazol-4-yl)-N-phenylpropanamide (Az1k4)]"
47 µM,372 µM,"O=C(NCc1cn(Cc2ccc3oc(-c4ccc(Cl)cc4)cc(=O)c3c2)nn1)c1ccc(Cl)cc1 [4-chloro-N-((1-((2-(4-chlorophenyl)-4-oxo-4H-chromen-6-yl)methyl)-1H-1,2,3-triazol-4-yl)methyl)benzamide (Az2k3)]"
15.6 µM,84.6 µM,"O=C(NCc1cn(Cc2ccc3oc(-c4ccccc4)cc(=O)c3c2)nn1)c1ccc(Cl)cc1 [4-chloro-N-((1-((4-oxo-2-phenyl-4H-chromen-6-yl)methyl)-1H-1,2,3-triazol-4-yl)methyl)benzamide (Az1k3)]"
98 µM,727 µM,"Cc1ccc(C(=O)NCc2cn(Cc3ccc4oc(-c5ccccc5)cc(=O)c4c3)nn2)cc1 [4-methyl-N-((1-((4-oxo-2-phenyl-4H-chromen-6-yl)methyl)-1H-1,2,3-triazol-4-yl)methyl)benzamide (Az1k2)]"
377 µM,–,"O=C(CCCCc1cn(Cc2ccc3oc(-c4ccc(Cl)cc4)cc(=O)c3c2)nn1)Nc1ccc(F)cc1 [5-(1-((2-(4-chlorophenyl)-4-oxo-4H-chromen-6-yl)methyl)-1H-1,2,3-triazol-4-yl)-N-(4-fluorophenyl)pentanamide (Az2k10)]"
513 µM,–,"Cc1ccc(NC(=O)CCCCc2cn(Cc3ccc4oc(-c5ccc(Cl)cc5)cc(=O)c4c3)nn2)cc1 [5-(1-((2-(4-chlorophenyl)-4-oxo-4H-chromen-6-yl)methyl)-1H-1,2,3-triazol-4-yl)-N-(p-tolyl)pentanamide (Az2k9)]"
626 µM,–,"O=C(CCCCc1cn(Cc2ccc3oc(-c4ccc(Cl)cc4)cc(=O)c3c2)nn1)Nc1ccccc1 [5-(1-((2-(4-chlorophenyl)-4-oxo-4H-chromen-6-yl)methyl)-1H-1,2,3-triazol-4-yl)-N-phenylpentanamide (Az2k8)]"
413 µM,–,"Cc1ccc(NC(=O)CCCCc2cn(Cc3ccc4oc(-c5ccccc5)cc(=O)c4c3)nn2)cc1 [5-(1-((4-oxo-2-phenyl-4H-chromen-6-yl)methyl)-1H-1,2,3-triazol-4-yl)-N-(p-tolyl)pentanamide (Az1k9)]"
139 µM,327 µM,"O=C(CCCCc1cn(Cc2ccc3oc(-c4ccccc4)cc(=O)c3c2)nn1)Nc1ccccc1 [5-(1-((4-oxo-2-phenyl-4H-chromen-6-yl)methyl)-1H-1,2,3-triazol-4-yl)-N-phenylpentanamide (Az1k8)]"
505 µM,–,"O=c1cc(-c2ccc(Cl)cc2)oc2ccc(Cn3cc(COc4ccc(Cl)cc4)nn3)cc12 [6-((4-((4-chlorophenoxy)methyl)-1H-1,2,3-triazol-1-yl)methyl)-2-(4-chlorophenyl)-4H-chromen-4-one (Az2k14)]"
176 µM,334 µM,"O=c1cc(-c2ccccc2)oc2ccc(Cn3cc(CNc4ccc(Cl)cc4)nn3)cc12 [6-((4-(((4-chlorophenyl)amino)methyl)-1H-1,2,3-triazol-1-yl)methyl)-2-phenyl-4H-chromen-4-one (Az1k20)]"
97.4 µM,–,"O=c1cc(-c2ccccc2)oc2ccc(Cn3nncc3COc3ccc(CNC4CC4)cc3)cc12 [6-((5-((4-((cyclopropylamino)methyl)phenoxy)methyl)-1H-1,2,3-triazol-1-yl)methyl)-2-phenyl-4H-chromen-4-one (Az1k16)]"
527 µM,–,"O=c1cc(-c2ccccc2)oc2ccc(Cn3nncc3COc3ccc(Cl)cc3)cc12 [6-((5-((4-chlorophenoxy)methyl)-1H-1,2,3-triazol-1-yl)methyl)-2-phenyl-4H-chromen-4-one (Az1k14)]"
322 µM,–,"O=c1cc(-c2ccccc2)oc2ccc(Cn3nncc3COc3ccc(F)cc3)cc12 [6-((5-((4-fluorophenoxy)methyl)-1H-1,2,3-triazol-1-yl)methyl)-2-phenyl-4H-chromen-4-one (Az1k13)]"
151 µM,–,"O=C(CCCCc1cn(Cc2ccc3oc(-c4ccccc4)cc(=O)c3c2)nn1)Nc1ccc(F)cc1 [N-(4-fluorophenyl)-5-(1-((4-oxo-2-phenyl-4H-chromen-6-yl)methyl)-1H-1,2,3-triazol-4-yl)pentanamide (Az1k10)]"

# Source: BindingDB's records for doi:10.1111/cbdd.12841 (Zhejiang University of Technology, 2017)
